Assay results published in ChEMBL document CHEMBL1147362, “Cytotoxicity of Hymenocallis expansa alkaloids” (1993).
≈ marks a conversion by molar mass, not a printed value.

What was measured:
Format in all cases: functional
Lu1 = test: Cytotoxicity against human Lu1 cells after 3 days by sulforhodamine B assay; conditions: Lu1, 72 h, read-out: ED50 (the source's name)
SK-MEL-2 = test: Cytotoxicity against human SK-MEL-2 cells after 3 days by sulforhodamine B assay; conditions: SK-MEL-2, 72 h, read-out: ED50 (the source's name)
HT = test: Cytotoxicity against human HT cells after 3 days by sulforhodamine B assay; conditions: 72 h, read-out: ED50 (the source's name)
Col2 = test: Cytotoxicity against human Col2 cells after 3 days by sulforhodamine B assay; conditions: Col2, 72 h, read-out: ED50 (the source's name)
KB = test: Cytotoxicity against human KB cells after 3 days by sulforhodamine B assay; conditions: 72 h, read-out: ED50 (the source's name)
[1] = Cytotoxicity against human BC1 cells after 3 days by sulforhodamine B assay; conditions: BC1, 72 h, read-out: ED50 (the source's name)
LNCaP = test: Cytotoxicity against human LNCAP cells after 3 days by sulforhodamine B assay; conditions: 72 h, read-out: ED50 (the source's name)
P388 = test: Cytotoxicity against mouse P388 cells after 3 days by sulforhodamine B assay; conditions: P388, 72 h, read-out: ED50 (the source's name)
A-431 = test: Cytotoxicity against human A431 cells after 3 days by sulforhodamine B assay; conditions: A-431, 72 h, read-out: ED50 (the source's name)
ZR-75-1 = test: Cytotoxicity against human ZR-75-1 cells after 3 days by sulforhodamine B assay; conditions: ZR-75-1, 72 h, read-out: ED50 (the source's name)
[2] = Cytotoxicity against human KBV1 cells after 3 days by sulforhodamine B assay; conditions: KB-V1, 72 h, read-out: ED50 (the source's name)

Compound | EC50 (Lu1) | EC50 (SK-MEL-2) | EC50 (HT) | EC50 (Col2) | EC50 (KB) | EC50 [1] | EC50 (LNCaP) | EC50 (P388) | EC50 (A-431) | EC50 (ZR-75-1) | EC50 [2]
CN1CCC2=C[C@H](O)[C@H]3OC(=O)c4cc5c(cc4[C@H]3[C@@H]21)OCO5 | 5.2 mg/L (≈ 16.5 µM) | > 20 mg/L | 4.7 mg/L (≈ 14.9 µM) | 7.8 mg/L (≈ 24.7 µM) | > 20 mg/L | > 20 mg/L | 1.8 mg/L (≈ 5.71 µM) | 4 mg/L (≈ 12.7 µM) | 6.3 mg/L (≈ 20 µM) | 7.3 mg/L (≈ 23.2 µM) | > 20 mg/L
CO[C@@H]1C=C[C@@]23c4cc5c(cc4[C@H](O)N(C[C@@H]2O)[C@H]3C1)OCO5 | 2.1 mg/L (≈ 6.62 µM) | 1.9 mg/L (≈ 5.99 µM) | 1.6 mg/L (≈ 5.04 µM) | 6 mg/L (≈ 18.9 µM) | 3.6 mg/L (≈ 11.3 µM) | > 20 mg/L | 0.7 mg/L (≈ 2.21 µM) | 0.4 mg/L (≈ 1.26 µM) | 3 mg/L (≈ 9.45 µM) | 2.6 mg/L (≈ 8.19 µM) | 8.4 mg/L (≈ 26.5 µM)
CO[C@@H]1C=C[C@@]23c4cc5c(cc4CO[C@]2(O)CN(C)[C@H]3C1)OCO5 [TAZETTINE] | 11.1 mg/L (≈ 33.5 µM) | 12.9 mg/L (≈ 38.9 µM) | 11.8 mg/L (≈ 35.6 µM) | 5 mg/L (≈ 15.1 µM) | 7.3 mg/L (≈ 22 µM) | > 20 mg/L | 5.9 mg/L (≈ 17.8 µM) | 1 mg/L (≈ 3.02 µM) | 11.1 mg/L (≈ 33.5 µM) | 6.9 mg/L (≈ 20.8 µM) | > 20 mg/L
